Assay results: patent US20240216476A1, “COMBINATION OF BITTER RECEPTOR AGONIST AND GUT-SIGNALING COMPOUND” (AARDVARK THERAPEUTICS, INC., priority 2021, published 2024)
Read-outs that look alike come from different tables or passages of the source. Marks after values point to notes of the source that are not given here.

What was measured:
[1] = tested on: AMLN-diet induced mice (fatty liver disease/NASH model); assay type: in vivo; conditions: in words
From the text: This Example provides the results obtained from an in vivo mouse model of fatty liver disease treatment to investigate the therapeutic effect of DA on the treatment of NASH versus positive control semaglutide (a GLP-1 agonist marketed drug for lowering HbA1c). This study used a positive control semaglutide, a vehicle control, study drug DA and a combination of semaglutide and DA. Mouse strain (B6 mice) was used, and the animals were already adults (23 weeks old) when the study began because the animals were already fed an AMLN diet for 17 weeks prior to the study being initiated. The study dose began at 75 mg/kg BID.
The study included 3 groups of 10 mice each, (A) vehicle control with distilled water by gavage BID, (B) DA by gavage BID, and (C) semaglutide […] sc QD. Body weights and changes were measured 3× per week. Serum metabolic markers (blood glucose, blood insulin, HbA1c, HDL, LDL triglycerides and bile acids) were measured at beginning of dosing (baseline) and end of study. At the end of the study, histopathology of liver samples and serum levels of inflammatory biomarkers (IL-6, TNFα, CK-18 and TGF-β) were evaluated. Histopathology was performed blindly with a scoring scale according to NAFLD Activity Score and Fibrosis Score according to Table 13. Table 14 identifies the kits and equipment used to measure serum parameters.

C57BL/6 mice fed on HFD = conditions: end of study, semaglutide 25 nmol/kg every two days SC 3 weeks, cited from earlier work
[2] = cited from earlier work; for TC level change from baseline / LDL level change from baseline: placebo +2%; for HDL level change from baseline: placebo +1%; for TG level change from baseline: placebo −2%; for Effect on Body Weight (placebo-adjusted change from baseline) / Effect on HbA1c (placebo-adjusted change from baseline) / Effect on Body Weight (placebo-adjusted change from baseline), percent: QD 24-26 weeks
NASH in vivo models [3] = conditions: Male C57BL/6J mice fed AMLN diet for 32 weeks, 10 nmol/kg, SC for 12 weeks, cited from earlier work
[4] = in vivo; cited from earlier work
[5] = cited from earlier work; for percentage of patients in whom NASH resolution was achieved with no worsening of fibrosis: placebo 17%
[6] = side effect incidence; cited from earlier work
NASH in vivo models [7] = assay: NASH in vivo models, summary and comparison of data from multiple studies (Table 15; first row Aardvark Therapeutics, PCT/US2022/014550); conditions: Male C57BL/6 mice fed AMLN diet for 48 weeks; 30 mg/kg, PO, QD for 48 weeks
From the text: FIGS. 23 through 33B show data from this Example 6, which is further described above under the heading, Brief Description of the Figures. A summary and comparison of NASH in vivo data from multiple studies is shown below in Table 15. [table] […] This makes it difficult to do direct comparisons of the data. The study corresponding to the first row (called Aardvark Therapeutics) is provided in PCT Patent application PCT/US2022/014550, filed Jan. 31, 2022.

[8] = tested on: high-fat diet-induced obese (DIO) mice; assay type: in vivo; conditions: in words; for high-density lipoprotein (HDL) levels: vs vehicle controls
Procedure: This Example provides the results from an in vivo study of denatonium acetate and sitagliptin in high-fat diet-induced obese (DIO) mice. C57BL/6NTac mice (at least 12 weeks of age) were fed with a high fat diet. All mice were dosed orally by gavage as (a) Vehicle group (N=15) dosed with distilled water BID, (b) DA group (N=15) dosed at 75 mg/kg (denatonium weight) BID; (c) sitagliptin group (N=15) dosed by gavage with 10 mg/kg QD; and (d) DA+ sitagliptin group (N=15) treated with DA at 75 mg/kg (denatonium based weight) BID and sitagliptin at 10 mg/kg by gavage QD. The groups were dosed for 8 weeks followed by a 5-7 day […] period. Body weight and body weight changes were measured three times per week. Serum biomarker levels for blood glucose (after fasting 6-8 hours), blood insulin, percentage of blood HvA1c, HDL, LDL, total triglycerides (TG), total cholesterol (TC) and bile acid were measured twice during the study at day 28 and at the end (day 56) of the study. Cumulative food intake and water consumption for each animal was measured.

ob/ob mice = conditions: sitagliptin 0.0018% in diet 12 weeks; alogliptin 42.2 mg/kg/day 28 days; cited from earlier work
[9] = tested on: C57Bl/6J mice fed with high-fat diet; conditions: sitagliptin 0.004% in diet 12 weeks; vildagliptin 30 mg/kg/day 7 weeks; alogliptin 0.03% (wt/wt) in diet for life span; cited from earlier work
[10] = 18 weeks, on metformin; saxagliptin 5 mg daily; sitagliptin 100 mg; cited from earlier work
[11] = in words; cited from earlier work
[12] = exenatide 24 nmol/kg QD IP 4 weeks
[13] = semaglutide 3 mg, sitagliptin 100 mg, saxagliptin 2.5 mg, vildagliptin 50 mg, alogliptin 12.5 mg, linagliptin 5 mg
[14] = semaglutide 3 mg, sitagliptin 100 mg, saxagliptin 2.5 mg, vildagliptin 50 mg
[15] = semaglutide 7 mg, sitagliptin 200 mg, saxagliptin 5 mg, vildagliptin 100 mg, alogliptin 25 mg
[16] = semaglutide 7 mg, sitagliptin 200 mg, saxagliptin 5 mg, vildagliptin 100 mg
[17] = semaglutide 14 mg, saxagliptin 10 mg
[18] = sitagliptin alone or in combination compared with controls, meta-analysis results

## Semaglutide
[1]; 12 weeks, DA 75 then 50 mg/kg BID by gavage, semaglutide 10 mmol/kg sc QD
  NAFLD Activity Score based on blinded histopathologic review: significantly improved NAFLD Activity Score
[1]; 12 weeks, DA 75 then 50 mg/kg BID, semaglutide 10 mmol/kg sc QD
  body weight and body weight change: remarkable effect on body weight
[1]; end of study
  HDLs: significantly decreased
  LDLs: significantly decreased
  TGs: significantly decreased
C57BL/6 mice fed on HFD; exenatide 24 nmol/kg QD IP 4 weeks, dulaglutide 0.6 mg/kg once weekly IP 12 weeks, liraglutide 0.3 mg/kg QD SC 38 days
  Control-adjusted Percent Change in Fasting Blood Glucose: −12.8%***
C57BL/6 mice fed on HFD; [12]
  Control-adjusted Percent Change in Lipid Levels: TC: TC: −16.7%**
  Control-adjusted Percent Change in Lipid Levels: TG: TG: −13.8%**
C57BL/6 mice fed on HFD
  Absolute body weight percent change: −13.4%^##
  Control-adjusted Percent Change in Lipid Levels: LDL: LDL: −9.3%*
[2]; oral semaglutide 3 mg, 26-week trial product estimate from another clinical trial
  TC level change from baseline: from baseline: −3%
[2]; oral semaglutide 3 mg, 26-week
  HDL level change from baseline: from baseline: 0%
  LDL level change from baseline: from baseline: −4%
  TG level change from baseline: from baseline: −5%
[2]; oral semaglutide 7 mg, 26-week
  HDL level change from baseline: (3 mg), −2%
  LDL level change from baseline: (3 mg) ^$, −6%
  TC level change from baseline: (3 mg) ^$$ −5%
  TG level change from baseline: (3 mg), −9%
[2]; [13]
  Effect on Body Weight (placebo-adjusted change from baseline): 3 mg: −0.2 kg
  Effect on HbA1c (placebo-adjusted change from baseline): 3 mg: −0.7%
[2]; [14]
  Effect on Body Weight (placebo-adjusted change from baseline), percent: (−0.23%)
[2]; [15]
  Effect on Body Weight (placebo-adjusted change from baseline): 7 mg: −1.0 kg
  Effect on HbA1c (placebo-adjusted change from baseline): 7 mg: −1.2%
[2]; [16]
  Effect on Body Weight (placebo-adjusted change from baseline), percent: (−1.1%)
[2]; [17]
  Effect on Body Weight (placebo-adjusted change from baseline): 14 mg: −2.6 kg
  Effect on Body Weight (placebo-adjusted change from baseline), percent: (−3.0%)
  Effect on HbA1c (placebo-adjusted change from baseline): 14 mg: −1.4%
NASH in vivo models [3]
  liver TG and total cholesterol levels, plasma ALT level, and liver content of fibrosis markers: Significantly decreased
NASH in vivo models [3]; significant
  liver weight and NAS overall score: decreased liver weight
[4]
  Incidence of Hypoglycemic Episodes for Combination with Insulin (vs. Placebo): 29.8%*
  Incidence of Hypoglycemic Episodes for Monotherapy at the Highest Dose (vs. Placebo): 3.8%
[5]; 0.1-mg group
  percentage of patients in whom NASH resolution was achieved with no worsening of fibrosis: 40%
[5]; 0.2-mg group
  percentage of patients in whom NASH resolution was achieved with no worsening of fibrosis: 36%
[5]; 0.4-mg group, placebo 1%
  mean percent weight loss: 13%
[5]; 0.4-mg group
  percentage of patients in whom NASH resolution was achieved with no worsening of fibrosis: 59%
[5]; human, in vivo
  incidence of constipation: 22%
  incidence of nausea: 42%
  incidence of vomiting: 15%
  patients with malignant neoplasms: 1%
  patients with neoplasms (benign, malignant, or unspecified): 15%

## CC[C@H](C)[C@H](NC(=O)[C@H](Cc1ccccc1)NC(=O)[C@H](CC(=O)O)NC(=O)[C@H](CCCNC(=N)N)NC(=O)[C@H](C)NC(=O)[C@H](C)NC(=O)[C@H](CC(C)C)NC(=O)[C@H](CC(N)=O)NC(=O)[C@H](CC(=O)O)NC(=O)[C@H](CC(C)C)NC(=O)[C@@H](NC(=O)[C@@H](NC(=O)[C@H](CC(N)=O)NC(=O)[C@H](CCSC)NC(=O)[C@H](CCC(=O)O)NC(=O)[C@H](CC(=O)O)NC(=O)[C@H](CO)NC(=O)[C@H](Cc1ccccc1)NC(=O)[C@H](CO)NC(=O)CNC(=O)[C@H](CC(=O)O)NC(=O)CNC(=O)[C@@H](N)Cc1c[nH]cn1)[C@@H](C)O)[C@@H](C)CC)C(=O)N[C@@H](CC(N)=O)C(=O)N[C@@H](Cc1c[nH]c2ccccc12)C(=O)N[C@@H](CC(C)C)C(=O)N[C@H](C(=O)N[C@@H](CCC(N)=O)C(=O)N[C@H](C(=O)N[C@@H](CCCCN)C(=O)N[C@H](C(=O)N[C@H](C(=O)N[C@@H](CC(=O)O)C(=O)O)[C@@H](C)O)[C@@H](C)CC)[C@@H](C)O)[C@@H](C)CC [teduglutide]
[6]
  injection site reaction: 13%
  intestinal stoma complication: 42%
  upper respiratory tract infection: 21%

## CC(=O)[O-].CC[N+](CC)(CC(=O)Nc1c(C)cccc1C)Cc1ccccc1 [DA or ARD-101]
NASH in vivo models [7]
  serum level of ALT, change: ALT (−43%), AST
  serum level of AST, change: (−9.5%), and bile acid
  serum level of HbAlc, change: −6.7%
  serum level of bile acid, change: (−16.2%)
  serum level of fasting glucose, change: −9%
  serum levels of GLP-1 and GLP-2: Increased serum levels
  serum levels of inflammatory markers: Lowered serum levels
  steatosis and fibrosis on histopathology: Significantly improved

## N[C@@H](CC(=O)N1CCn2c(nnc2C(F)(F)F)C1)Cc1cc(F)c(F)cc1F [Sitagliptin, (2R)-4-oxo-4-[3-(trifluoromethyl)-5,6-dihydro[1,2,4]triazolo[4,3-a]pyrazin-7(8H)-yl]-1-(2,4,5-trifluorophenyl)butan-2-amine]
[8]; FIG. 22A
  high-density lipoprotein (HDL) levels: significantly decreased high-density lipoprotein (HDL) levels
[8]; day 56 (FIG. 22B)
  high-density lipoprotein (HDL) levels: significantly decreased high-density lipoprotein (HDL) levels
[8]; 56-day study summary
  weight loss: no weight loss effect was seen with longer duration dosing
[8]; DA 75 mg/kg BID, sitagliptin 10 mg/kg QD by gavage, 8 weeks
  effect on body weight (relative body weight percentage and relative body weight change): least effect on body weight
[2]; [13]
  Effect on Body Weight (placebo-adjusted change from baseline): 100 mg: +0.9 kg
  Effect on HbA1c (placebo-adjusted change from baseline): 100 mg: −0.79%
[2]; [14]
  Effect on Body Weight (placebo-adjusted change from baseline), percent: (+1.1%)
[2]; [15]
  Effect on Body Weight (placebo-adjusted change from baseline): 200 mg: +1.0 kg
  Effect on HbA1c (placebo-adjusted change from baseline): 200 mg: −0.94%
[2]; [16]
  Effect on Body Weight (placebo-adjusted change from baseline), percent: (+1.2%)
[2]; [18]
  HDL-C, weighted mean difference (WMD): 0.05 mmol/L) ^$$$
  serum TG, weighted mean difference [WMD]: [WMD] −0.24 mmol/L
ob/ob mice
  Control-adjusted Percent Change in Fasting Blood Glucose: −23.4%*
  Control-adjusted Percent Change in Insulin Level: +148%*
  Control-adjusted Percent Change in TG Level: −43.2%*
[9]
  Control-adjusted Percent Change in Body Weight Gain: −45.8%*
  Control-adjusted Percent Change in Fasting Blood Glucose: −20.9%*
  Control-adjusted Percent Change in Insulin Level: −41.7%
[10]
  reductions in hemoglobin A1c (HbA1c): −0.26%
[11]
  excretion and metabolism: renally excreted with minimal liver metabolism (via CYP3A4 and CYP2C8)
